# Reference: patent US9822147B2, “Methods of treating ophthalmic diseases using NPR-B agonists” (priority 2009, dated 2017)
# Numbered stars: 1 amine (or outer) side, 2 acyl side, 3 side chain; on linkers, the order of the positions; unused ones are H or OH. Square brackets hold non-standard residues; d marks the D form. Peptide text beside a SMILES is read from it. * marks the point of attachment. X3 = NCCN[C@@H]1C[C@@H](C(=O)[*:2])N([*:1])C1; Phe(4-F) = N[C@@H](Cc1ccc(F)cc1)C(=O)O; Pro(4R-NH2) = N[C@H]1CN[C@H](C(=O)O)C1; dLys(Me2) = CN(C)CCCC[C@@H](N)C(=O)O; dOrn(Me2) = CN(C)CCC[C@@H](N)C(=O)O; X2 = O=C([C@H]1CCCN([*:1])C1)[*:2]; X1 = CCCCCCCCN1CCC[C@H](C(=O)*)C1; Hyp = O=C(O)[C@@H]1C[C@@H](O)CN1; NHcycloheptyl = C1CCCC(N*)CC1; NMeL = CN[C@@H](CC(C)C)C(=O)O; dNle = CCCC[C@@H](N)C(=O)O; dOrn = NCCC[C@@H](N)C(=O)O; Octanoyl = CCCCCCCC(=O)*
# Target: T1, NPR-B (Homo sapiens, UniProt P20594)
# T1 construct: a functional assay using endogenously NPR-B expressing GTM-3 cells; endogenous in cells; host or cells: GTM-3 (human glaucoma trabecular meshwork cells)
# T1 sequence (P20594 23-1047): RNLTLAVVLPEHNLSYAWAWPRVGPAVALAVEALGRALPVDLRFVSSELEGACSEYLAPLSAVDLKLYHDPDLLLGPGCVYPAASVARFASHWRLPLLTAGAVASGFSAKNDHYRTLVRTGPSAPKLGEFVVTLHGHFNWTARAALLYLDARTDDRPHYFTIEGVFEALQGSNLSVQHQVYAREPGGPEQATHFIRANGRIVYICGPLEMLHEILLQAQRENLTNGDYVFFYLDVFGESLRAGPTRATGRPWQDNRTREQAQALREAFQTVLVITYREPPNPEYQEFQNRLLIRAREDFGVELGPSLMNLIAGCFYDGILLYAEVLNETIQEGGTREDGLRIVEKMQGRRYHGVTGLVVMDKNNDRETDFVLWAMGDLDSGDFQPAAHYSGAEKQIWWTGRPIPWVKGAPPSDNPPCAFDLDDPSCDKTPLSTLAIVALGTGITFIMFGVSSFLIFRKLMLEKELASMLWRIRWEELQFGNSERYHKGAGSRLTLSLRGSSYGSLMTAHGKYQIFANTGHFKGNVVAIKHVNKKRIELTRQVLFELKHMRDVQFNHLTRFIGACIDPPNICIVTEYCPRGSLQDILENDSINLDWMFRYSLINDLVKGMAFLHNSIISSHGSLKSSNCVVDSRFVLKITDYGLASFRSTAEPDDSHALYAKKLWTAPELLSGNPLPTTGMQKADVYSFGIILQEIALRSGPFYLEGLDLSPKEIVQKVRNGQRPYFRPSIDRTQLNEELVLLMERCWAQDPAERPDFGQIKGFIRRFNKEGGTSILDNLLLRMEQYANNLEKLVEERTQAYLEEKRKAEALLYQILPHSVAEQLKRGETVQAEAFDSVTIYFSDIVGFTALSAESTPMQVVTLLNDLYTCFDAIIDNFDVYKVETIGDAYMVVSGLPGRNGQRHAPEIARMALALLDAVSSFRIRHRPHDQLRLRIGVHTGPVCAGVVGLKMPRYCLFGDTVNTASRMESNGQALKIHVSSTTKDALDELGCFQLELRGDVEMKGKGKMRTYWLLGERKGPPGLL
# Test: NPR-B induced production of cyclic GMP in human glaucoma trabecular meshwork cells (GTM-3)
# Assay type: cell-based
# Details: group by EC50 and Emax (CNP = 100%); Table 4; read-out: Activity (group), NPR-B activation assayed with GTM-3 cells
row,Structure (SMILES),EC50 [nM]
1,"CC[C@H](C)[C@H](NC(=O)[C@H](CCCNC(=N)N)NC(=O)[C@H](CC(=O)O)NC(=O)[C@H](CC(C)C)N(C)C(=O)[C@@H]1C[C@@H](O)CN1C(=O)[C@H](CC(C)C)NC(=O)[C@@H](CC(C)C)NC(=O)[C@H](Cc1ccccc1)NC(=O)[C@H]1CCCN(C(=O)CCCCc2ccccc2)C1)C(N)=O [JAL-1606, 1320-Sni-Phe-leu-Leu-Hyp-Nml-Asp-Arg-Ile-NH2] (HELM PEPTIDE1{[O=C(CCCCc1ccccc1)[*:2]].[O=C([C@H]1CCCN([*:1])C1)[*:2]].F.[dL].L.[Hyp].[meL].D.R.I.[am]}$$$$V2.0)",< 1000
2,"CCCCc1cnc(N2CCC[C@H](C(=O)N[C@@H](Cc3ccccc3)C(=O)N[C@H](CC(C)C)C(=O)N[C@@H](CC(C)C)C(=O)N3C[C@H](O)C[C@H]3C(=O)N(C)[C@@H](CC(C)C)C(=O)N[C@@H](CC(=O)O)C(=O)N[C@@H](CCCNC(=N)N)C(=O)N[C@H](C(N)=O)[C@@H](C)CC)C2)s1 [JAL-1382, Sbt-Sni-Phe-leu-Leu-Hyp-Nml-Asp-Arg-Ile-NH2] (HELM PEPTIDE1{[CCCCc1cnc(N2CCC[C@H](C(=O)[*:2])C2)s1].F.[dL].L.[Hyp].[meL].D.R.I.[am]}$$$$V2.0)",< 1000
3,"CCCCCCCC(=O)N1CCC[C@H](C(=O)N[C@@H](Cc2ccccc2)C(=O)N[C@H](CC(C)C)C(=O)N[C@@H](CC(C)C)C(=O)N2C[C@H](NCCN)C[C@H]2C(=O)N(C)[C@@H](CC(C)C)C(=O)N[C@@H](CC(=O)O)C(=O)N[C@@H](CCCNC(=N)N)C(=O)N[C@H](C(N)=O)[C@@H](C)CC)C1 [JAL-1371, Occ-Sni-Phe-leu-Leu-Tap(Ae)-Nml-Asp-Arg-Ile-NH2] (Octanoyl-[X2]F[dL]L[X3][NMeL]DRI-NH2)",< 1000
4,"CCCCCCCC(=O)N1CCC[C@H](C(=O)N[C@@H](Cc2ccc(F)cc2)C(=O)N[C@H](CC(C)C)C(=O)N[C@@H](CC(C)C)C(=O)N2C[C@H](O)C[C@H]2C(=O)N(C)[C@@H](CC(C)C)C(=O)N[C@@H](CC(=O)O)C(=O)N[C@@H](CCCNC(=N)N)C(=O)N[C@H](C(N)=O)[C@@H](C)CC)C1 [JAL-1487, Occ-Sni-Pff-leu-Leu-Hyp-Nml-Asp-Arg-Ile-NH2] (Octanoyl-[X2][Phe(4-F)][dL]L[Hyp][NMeL]DRI-NH2)",< 1000
5,"CCCCCCCC(=O)N[C@H](C)C(=O)N[C@@H](Cc1ccccc1)C(=O)N[C@H](CC(C)C)C(=O)N[C@@H](CC(C)C)C(=O)N1C[C@H](O)C[C@H]1C(=O)N(C)[C@@H](CC(C)C)C(=O)N[C@@H](CC(=O)O)C(=O)N(C)[C@@H](CCCNC(=N)N)C(=O)N[C@H](C(N)=O)[C@@H](C)CC [JAL-1417, Occ-ala-Phe-leu-Leu-Hyp-Nml-Asp-Nmr-Ile-NH2] (HELM PEPTIDE1{[CCCCCCCC(=O)[*:2]].[dA].F.[dL].L.[Hyp].[meL].D.[meR].I.[am]}$$$$V2.0)",< 1000
6,"CCCCCCCC(=O)N1CCC[C@H](C(=O)N[C@@H](Cc2ccccc2)C(=O)N[C@H](CCCN)C(=O)N[C@@H](CC(C)C)C(=O)N2C[C@H](N)C[C@H]2C(=O)N(C)[C@@H](CC(C)C)C(=O)N[C@@H](CC(=O)O)C(=O)N[C@@H](CCCNC(=N)N)C(=O)N[C@H](C(N)=O)[C@@H](C)CC)C1 [JAL-1318, Occ-Sni-Phe-orn-Leu-Tap-Nml-Asp-Arg-Ile-NH2] (Octanoyl-[X2]F[dOrn]L[Pro(4R-NH2)][NMeL]DRI-NH2)",< 1000
7,"CCCCCCCC(=O)N[C@H](C)C(=O)N[C@@H](Cc1ccccc1)C(=O)N[C@H](CC(C)C)C(=O)N[C@@H](CC(C)C)C(=O)N1C[C@H](O)C[C@H]1C(=O)N(C)[C@@H](CC(C)C)C(=O)N[C@H](C(=O)N[C@@H](CCCNC(=N)N)C(=O)N[C@H](C(N)=O)[C@@H](C)CC)C1CCCC1 [JAL-1556, Occ-ala-Phe-leu-Leu-Hyp-Nml-(BB725)-Arg-Ile-NH2] (HELM PEPTIDE1{[CCCCCCCC(=O)[*:2]].[dA].F.[dL].L.[Hyp].[meL].[O=C([C@@H](N[*:1])C1CCCC1)[*:2]].R.I.[am]}$$$$V2.0)",< 1000
8,"CCCCCCCC(=O)N[C@H]1CCN([C@@H](Cc2ccccc2)C(=O)N[C@H](CC(C)C)C(=O)N[C@@H](CC(C)C)C(=O)N2C[C@H](O)C[C@H]2C(=O)N(C)[C@@H](CC(C)C)C(=O)N[C@@H](CC(=O)O)C(=O)N[C@@H](CCCNC(=N)N)C(=O)N[C@H](C(N)=O)[C@@H](C)CC)C1=O [JAL-1671, Occ-(AFL)-leu-Leu-Hyp-Nml-Asp-Arg-Ile-NH2]",< 1000
9,"CCCCCCCCCC(=O)N1CCC[C@H](C(=O)N[C@@H](Cc2ccccc2)C(=O)N[C@H](CC(C)C)C(=O)N[C@@H](CC(C)C)C(=O)N2C[C@H](O)C[C@H]2C(=O)N(C)[C@@H](CC(C)C)C(=O)N[C@@H](CC(=O)O)C(=O)N[C@@H](CCCNC(=N)N)C(=O)N[C@H](C(N)=O)[C@@H](C)CC)C1 [JAL-1666, 5587-Sni-Phe-leu-Leu-Hyp-Nml-Asp-Arg-Ile-NH2] (HELM PEPTIDE1{[CCCCCCCCCC(=O)[*:2]].[O=C([C@H]1CCCN([*:1])C1)[*:2]].F.[dL].L.[Hyp].[meL].D.R.I.[am]}$$$$V2.0)",< 1000
10,"CCCCCCCC(=O)N1CCC[C@H](C(=O)N[C@@H](Cc2ccccc2)C(=O)N[C@H](CCCC)C(=O)N[C@@H](CC(C)C)C(=O)N2C[C@H](O)C[C@H]2C(=O)N[C@@H](CC(C)C)C(=O)N[C@@H](CC(=O)O)C(=O)N[C@@H](CCCNC(=N)N)C(=O)N[C@H](C(N)=O)[C@@H](C)CC)C1 [JAL-1024, Occ-Sni-Phe-nle-Leu-Hyp-Leu-Asp-Arg-Ile-NH2] (Octanoyl-[X2]F[dNle]L[Hyp]LDRI-NH2)",< 1000

# Further lines, results first:
row,EC50 [nM],Structure (SMILES)
1,< 1000,"CCCCCCCCN1CCC[C@H](C(=O)N[C@@H](Cc2ccccc2)C(=O)N[C@H](CC(C)C)C(=O)N[C@@H](CC(C)C)C(=O)N2C[C@H](N)C[C@H]2C(=O)N(C)[C@@H](CC(C)C)C(=O)N[C@@H](CC(=O)O)C(=O)N[C@@H](CCCNC(=N)N)C(=O)NC2CCCCCC2)C1 [JAL-1843, Oct-Sni-Phe-leu-Leu-Tap-Nml-Asp-Arg-Che] (X1-F[dL]L[Pro(4R-NH2)][NMeL]DR-NHcycloheptyl)"
2,< 1000,"CCCCCCCC(=O)N1CCC[C@H](C(=O)N[C@@H](Cc2ccccc2)C(=O)N[C@H](CCCN(C)C)C(=O)N[C@@H](CC(C)C)C(=O)N2C[C@H](O)C[C@H]2C(=O)N(C)[C@@H](CC(C)C)C(=O)N[C@H](C(=O)N[C@@H](CCCNC(=N)N)C(=O)N[C@H](C(N)=O)[C@@H](C)CC)C(C)C)C1 [JAL-1782, Occ-Sni-Phe-orn(Me2)-Leu-Hyp-Nml-Val-Arg-Ile-NH2] (Octanoyl-[X2]F[dOrn(Me2)]L[Hyp][NMeL]VRI-NH2)"
3,< 1000,"CCCCCCCC(=O)N1CCC[C@H](C(=O)N[C@@H](Cc2ccccc2)C(=O)N[C@H](CCCN(C)C)C(=O)N[C@@H](CC(C)C)C(=O)N2C[C@H](N)C[C@H]2C(=O)N(C)[C@@H](CC(C)C)C(=O)N[C@H](C(=O)N[C@@H](CCCNC(=N)N)C(=O)NC2CCCCCC2)C(C)C)C1 [JAL-1850, Occ-Sni-Phe-orn(Me2)-Leu-Tap-Nml-Val-Arg-Che] (Octanoyl-[X2]F[dOrn(Me2)]L[Pro(4R-NH2)][NMeL]VR-NHcycloheptyl)"
4,< 1000,"CCCCCCCC(=O)N1CCC[C@H](C(=O)N[C@@H](Cc2ccccc2)C(=O)N[C@H](CCCCN(C)C)C(=O)N[C@@H](CC(C)C)C(=O)N2C[C@H](O)C[C@H]2C(=O)N(C)[C@@H](CC(C)C)C(=O)N[C@H](C(=O)N[C@@H](CCCNC(=N)N)C(=O)NC2CCCCCC2)C(C)C)C1 [JAL-1779, Occ-Sni-Phe-lys(Me2)-Leu-Hyp-Nml-Val-Arg-Che] (Octanoyl-[X2]F[dLys(Me2)]L[Hyp][NMeL]VR-NHcycloheptyl)"
5,< 1000,"CCCCCCCC(=O)N1CCC[C@H](C(=O)N[C@@H](Cc2ccccc2)C(=O)N[C@H](CC(C)C)C(=O)N[C@@H](CC(C)C)C(=O)N2C[C@H](NCCN)C[C@H]2C(=O)N(C)[C@@H](CC(C)C)C(=O)N[C@@H](CC(=O)O)C(=O)N[C@@H](CCCNC(=N)N)C(=O)NC2CCCCCC2)C1 [JAL-1681, Occ-Sni-Phe-leu-Leu-Tap(Ae)-Nml-Asp-Arg-Che] (Octanoyl-[X2]F[dL]L[X3][NMeL]DR-NHcycloheptyl)"
6,< 1000,"CCCCCCCC(=O)N1CCC[C@H](C(=O)N[C@@H](Cc2ccccc2)C(=O)N[C@H](CC(C)C)C(=O)N[C@@H](CC(C)C)C(=O)N2C[C@H](N)C[C@H]2C(=O)N(C)[C@@H](CC(C)C)C(=O)N[C@@H](CC(=O)O)C(=O)N[C@@H](CCCNC(=N)N)C(=O)NC2CCCCCC2)C1 [JAL-1682, Occ-Sni-Phe-leu-Leu-Tap-Nml-Asp-Arg-Che] (Octanoyl-[X2]F[dL]L[Pro(4R-NH2)][NMeL]DR-NHcycloheptyl)"
